Data taken from BindingDB's records for doi:10.1016/S0960-894X(03)00095-7 (Abbott Laboratories, 2003).

Key:
[1] = biological target: Geranylgeranyl transferase type-1 subunit beta/Protein farnesyltransferase/geranylgeranyltransferase type-1 subunit alpha (Bos taurus, UniProt P29702+Q5EAD5); test: GGTase-I Activity Assay; conditions: pH 7.5; 37 °C
Experimental: The in vitro activity of compounds inhibiting GGTase-1 was determined by measuring the transfer of [3H]-geranylgeranylpyrophosphate to substrate Ha-Ras-CVLL. The incorporated radioactivity was quantified by scintillation counting.

[2] = biological target: Protein farnesyltransferase subunit beta/geranylgeranyltransferase type-1 subunit alpha (Bos taurus, UniProt P29702+P49355); test: FTase Activity Assay; conditions: pH 7.5; 37 °C
Experimental: The in vitro activity of compounds inhibiting FTase was determined by measuring the transfer of [3H]-FPP to substrate Ha-Ras-CVLS. The incorporated radioactivity was quantified by scintillation counting.

CN(Cc1ccc(C#N)cc1)[C@H](Cc1cncn1C)C(=O)N1CCC(C#N)=C(c2cccc3ccccc23)C1 [1-[(2R)-2-{[(4-cyanophenyl)methyl](methyl)amino}-3-(1-methyl-1H-imidazol-5-yl)propanoyl]-5-(naphthalen-1-yl)-1,2,3,6-tetrahydropyridine-4-carbonitrile]
IC50 [1]: 1600 nM | IC50 [2]: 0.92 nM
